The values that follow come from patent US20240398889A1, “NUTRACEUTICAL COMPOSITION AND METHOD FOR THE PROTECTION OF HUMAN ARTERIAL ENDOTHELIAL CELLS FROM ENDOTHELIAL CELL DYSFUNCTION” (K.L.R.M., LLC, priority 2022, published 2024).

The structures appear in SMILES notation.

Experiment [1] concerns human umbilical arterial endothelial cells (HUAEC). Nature of the experiment: cGMP expression by colorimetric ELISA in HUAEC. The format is cell-based. To be noted: 24 hours; for reduction of cGMP expression compared to COMP-4 incubation alone: inhibitor co-incubated with COMP-4 0.69 mg/ml; for reduction of cGMP expression compared to COMP-4 incubation alone / cGMP expression, change vs control: L-NIL 2 μM; for cGMP expression, change vs control: agent alone, IBMX 0.4 mM. As to the method:
Cells were then scraped, homogenized by pipetting, and centrifuged at 1,000 g for 10 minutes. […] The enzymatic reaction product was determined by spectrophotometry at 405 nm absorbance and expressed as pmol/mg protein.
(In an ELISA, binding on a coated surface is turned into a signal by an enzyme label.)

Experiment [2] has the same test system. Nature of the experiment: Intracellular NO by Muse Nitric Oxide Kit (DAX-J2 Orange). In kind it is cell-based. The conditions noted are these: L-NAME added to COMP-4, 24 hours. As to the method:
To corroborate the results obtained by flow cytometry, another system for detecting intracellular NO was used, the Muse® Nitric Oxide Kit (cat #MCH100112, Luminex, Austin, TX). HUAEC were seeded at 1.0×10^6 cells/ml in T25 flasks, treated with vehicle, COMP-4 with or without L-NAME, or LPS (positive control), and incubated for 24 hours. Cells were then suspended in assay buffer at 10^6 cells/ml. 100 μL of working solution consisting of the Muse Nitric Oxide Reagent (DAX-J2 Orange) was added to 10 μL of cells in suspension. Samples were incubated for 30 minutes in a 37° C. incubator with 5% CO2. After the incubation, 90 μL of the Muse 7-AAD working solution (dead cell marker) was added to each tube and incubated at room temperature for 5 min, protected from light. Intracellular NO was measured using the Guava® Muse Cell Analyzer, calibrated with negative and positive controls. Generated plots were divided into quadrants of nitric oxide positivity (+or −) and dead cells (+or −). From each plot, the lower-right quadrant of nitric oxide (+) and dead cell marker (−) was used to express intracellular NO results as the percent positive NO in live cells, which was compared between different treatments.

Turning to `COC(=O)[C@@H](N)CCCNC(=N)N[N+](=O)[O-]` [L-NAME, L-N^G-Nitro arginine methyl ester], in experiment [1] (inhibitor alone, L-NAME 3 μM, vs control), the “reduction of cGMP expression” value was 40%. Also, in experiment [1] (L-NAME 3 μM), the “reduction of cGMP expression compared to COMP-4 incubation alone” value is 57%. Besides, in experiment [2], the “reduction of DAX-J2 Orange live cells compared to COMP-4 alone” value amounted to 46%.

Consider `CC(C)Cn1c(=O)n(C)c(=O)c2[nH]cnc21` [IBMX, 3-isobutyl-1-methylxanthine], for which the “cGMP expression, change vs control” value in experiment [1] is given as “increase in cGMP expression”.

Turning to `CC(=N)NCCCC[C@H](N)C(=O)O.Cl` [L-NIL, N^6-(1-Iminoethyl)-lysine, hydrochloride], the “cGMP expression, change vs control” value in experiment [1] is “no inhibition of cGMP expression”. Besides, the “reduction of cGMP expression compared to COMP-4 incubation alone” value in experiment [1] (L-NAME 3 μM) amounted to 44%.
